ChEMBL document CHEMBL5465560, “Selectivity Literature for EUbOPEN Chemogenomic Library” (2024)

How the values were obtained:
[1] = molecular target: T1, Mitogen-activated protein kinase kinase kinase kinase 2 (Homo sapiens) (UniProt Q12851); assay: Selectivity interaction (KinomeScan (DiscoverX)) EUB0001049a MAP4K2; conditions: at 1 µM
T1 sequence (whole entry): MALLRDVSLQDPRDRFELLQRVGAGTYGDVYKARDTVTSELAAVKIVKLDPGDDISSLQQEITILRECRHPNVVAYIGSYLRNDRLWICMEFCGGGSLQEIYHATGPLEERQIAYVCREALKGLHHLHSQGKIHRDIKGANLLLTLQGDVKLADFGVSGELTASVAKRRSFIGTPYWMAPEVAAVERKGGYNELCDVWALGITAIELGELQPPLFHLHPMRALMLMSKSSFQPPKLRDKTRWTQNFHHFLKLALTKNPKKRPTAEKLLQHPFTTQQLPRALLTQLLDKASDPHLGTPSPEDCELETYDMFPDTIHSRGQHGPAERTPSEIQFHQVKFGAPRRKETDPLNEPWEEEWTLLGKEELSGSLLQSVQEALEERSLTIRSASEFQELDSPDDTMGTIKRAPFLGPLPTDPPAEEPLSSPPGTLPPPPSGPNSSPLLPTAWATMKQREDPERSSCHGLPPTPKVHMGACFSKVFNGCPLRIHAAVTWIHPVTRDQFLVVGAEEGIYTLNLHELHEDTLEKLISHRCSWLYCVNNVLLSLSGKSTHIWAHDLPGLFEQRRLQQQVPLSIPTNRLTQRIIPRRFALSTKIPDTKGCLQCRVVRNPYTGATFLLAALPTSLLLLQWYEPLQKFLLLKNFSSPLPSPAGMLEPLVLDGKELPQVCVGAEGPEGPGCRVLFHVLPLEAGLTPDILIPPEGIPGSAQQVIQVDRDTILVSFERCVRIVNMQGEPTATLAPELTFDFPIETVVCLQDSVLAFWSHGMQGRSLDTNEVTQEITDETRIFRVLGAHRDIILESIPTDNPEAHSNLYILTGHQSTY

[2] = molecular target: Ribosomal protein S6 kinase alpha-6 (Homo sapiens, UniProt Q9UK32); assay: Selectivity interaction (KinomeScan (DiscoverX)) EUB0000595a RPS6KA6; conditions: at 10 µM
Sequence of Ribosomal protein S6 kinase alpha-6 (Q9UK32 whole entry): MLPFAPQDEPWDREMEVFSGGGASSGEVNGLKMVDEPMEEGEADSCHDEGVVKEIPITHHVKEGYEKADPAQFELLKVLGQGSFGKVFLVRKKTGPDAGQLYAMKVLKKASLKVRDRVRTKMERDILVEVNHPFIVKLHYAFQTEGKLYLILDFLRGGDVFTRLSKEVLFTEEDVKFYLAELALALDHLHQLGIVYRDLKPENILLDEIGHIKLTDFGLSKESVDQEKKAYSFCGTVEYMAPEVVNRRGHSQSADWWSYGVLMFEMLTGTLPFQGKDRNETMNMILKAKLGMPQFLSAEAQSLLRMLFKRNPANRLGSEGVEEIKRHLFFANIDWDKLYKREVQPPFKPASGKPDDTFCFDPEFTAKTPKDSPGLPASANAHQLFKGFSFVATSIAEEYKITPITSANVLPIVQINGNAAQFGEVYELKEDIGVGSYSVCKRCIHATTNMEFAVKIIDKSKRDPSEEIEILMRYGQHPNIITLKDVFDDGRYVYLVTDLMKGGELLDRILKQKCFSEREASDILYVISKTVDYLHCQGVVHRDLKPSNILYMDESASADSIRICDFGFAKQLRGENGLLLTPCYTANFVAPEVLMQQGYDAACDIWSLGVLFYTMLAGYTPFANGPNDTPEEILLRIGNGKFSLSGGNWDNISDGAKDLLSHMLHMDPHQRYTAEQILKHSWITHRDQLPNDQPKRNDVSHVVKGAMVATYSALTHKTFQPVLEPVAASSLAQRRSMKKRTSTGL

[3] = molecular target: Ribosomal protein S6 kinase alpha-3 (Homo sapiens, UniProt P51812); assay: Selectivity interaction (KinomeScan (DiscoverX)) EUB0000092b RPS6KA3; conditions: at 10 µM
Sequence of Ribosomal protein S6 kinase alpha-3 (P51812 whole entry): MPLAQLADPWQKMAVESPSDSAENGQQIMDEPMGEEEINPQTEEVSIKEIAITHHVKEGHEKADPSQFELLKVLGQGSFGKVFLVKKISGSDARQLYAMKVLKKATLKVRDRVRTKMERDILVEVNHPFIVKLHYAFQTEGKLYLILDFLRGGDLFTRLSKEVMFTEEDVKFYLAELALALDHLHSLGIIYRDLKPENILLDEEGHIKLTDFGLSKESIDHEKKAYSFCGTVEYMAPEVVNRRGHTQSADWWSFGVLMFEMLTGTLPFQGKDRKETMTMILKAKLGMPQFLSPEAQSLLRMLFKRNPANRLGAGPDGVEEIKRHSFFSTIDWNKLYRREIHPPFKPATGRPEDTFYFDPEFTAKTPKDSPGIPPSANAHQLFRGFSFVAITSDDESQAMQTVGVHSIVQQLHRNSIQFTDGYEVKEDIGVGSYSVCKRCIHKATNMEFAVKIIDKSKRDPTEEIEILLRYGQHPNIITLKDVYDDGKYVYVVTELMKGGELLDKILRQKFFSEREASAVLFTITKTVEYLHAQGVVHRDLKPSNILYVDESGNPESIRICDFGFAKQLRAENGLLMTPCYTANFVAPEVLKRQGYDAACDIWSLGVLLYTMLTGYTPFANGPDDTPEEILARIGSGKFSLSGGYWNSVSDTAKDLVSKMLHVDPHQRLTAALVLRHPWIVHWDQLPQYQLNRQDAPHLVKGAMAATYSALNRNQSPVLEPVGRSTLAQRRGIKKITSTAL

[4] = molecular target: T2, Ephrin type-B receptor 2 (Homo sapiens) (UniProt P29323); assay: Selectivity interaction (Kinase screening (Nanosyn)) EUB0000604a EPHB2
T2 sequence (whole entry): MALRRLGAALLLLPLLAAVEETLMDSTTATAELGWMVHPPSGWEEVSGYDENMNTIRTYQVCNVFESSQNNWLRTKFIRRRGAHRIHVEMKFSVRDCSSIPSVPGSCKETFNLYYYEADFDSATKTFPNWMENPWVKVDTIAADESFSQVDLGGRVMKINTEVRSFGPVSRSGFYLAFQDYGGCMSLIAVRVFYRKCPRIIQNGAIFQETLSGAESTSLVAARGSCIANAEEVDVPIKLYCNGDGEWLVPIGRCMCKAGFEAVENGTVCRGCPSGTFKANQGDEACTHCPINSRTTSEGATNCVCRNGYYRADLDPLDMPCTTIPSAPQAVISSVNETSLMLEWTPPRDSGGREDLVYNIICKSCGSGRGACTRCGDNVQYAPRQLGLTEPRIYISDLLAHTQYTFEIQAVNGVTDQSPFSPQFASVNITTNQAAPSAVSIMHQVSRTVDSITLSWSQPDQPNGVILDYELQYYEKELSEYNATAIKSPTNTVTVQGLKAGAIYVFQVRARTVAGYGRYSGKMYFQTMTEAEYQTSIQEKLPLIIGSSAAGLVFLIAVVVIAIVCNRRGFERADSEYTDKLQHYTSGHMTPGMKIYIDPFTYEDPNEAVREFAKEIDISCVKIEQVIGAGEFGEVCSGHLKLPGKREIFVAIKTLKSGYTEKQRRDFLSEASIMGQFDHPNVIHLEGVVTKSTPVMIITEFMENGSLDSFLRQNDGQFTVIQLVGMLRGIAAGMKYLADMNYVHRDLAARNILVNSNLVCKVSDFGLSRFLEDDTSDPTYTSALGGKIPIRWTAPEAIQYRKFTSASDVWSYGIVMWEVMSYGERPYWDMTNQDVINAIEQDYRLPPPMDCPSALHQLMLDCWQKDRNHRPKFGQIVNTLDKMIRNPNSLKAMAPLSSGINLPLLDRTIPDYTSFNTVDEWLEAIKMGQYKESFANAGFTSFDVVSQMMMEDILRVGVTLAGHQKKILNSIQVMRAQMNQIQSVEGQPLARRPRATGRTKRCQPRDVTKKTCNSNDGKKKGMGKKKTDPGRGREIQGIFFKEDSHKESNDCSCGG

[5] = molecular target: Ribosomal protein S6 kinase beta-2 (Homo sapiens) (UniProt Q9UBS0); assay: Selectivity interaction (ActivX KiNativ screen (ex vivo kinase selectivity in human PBMCs)) EUB0001619a RPS6KB2; format: cell-based; conditions: PBMC, at 1 µM
Sequence of Ribosomal protein S6 kinase beta-2 (Homo sapiens) (Q9UBS0 whole entry): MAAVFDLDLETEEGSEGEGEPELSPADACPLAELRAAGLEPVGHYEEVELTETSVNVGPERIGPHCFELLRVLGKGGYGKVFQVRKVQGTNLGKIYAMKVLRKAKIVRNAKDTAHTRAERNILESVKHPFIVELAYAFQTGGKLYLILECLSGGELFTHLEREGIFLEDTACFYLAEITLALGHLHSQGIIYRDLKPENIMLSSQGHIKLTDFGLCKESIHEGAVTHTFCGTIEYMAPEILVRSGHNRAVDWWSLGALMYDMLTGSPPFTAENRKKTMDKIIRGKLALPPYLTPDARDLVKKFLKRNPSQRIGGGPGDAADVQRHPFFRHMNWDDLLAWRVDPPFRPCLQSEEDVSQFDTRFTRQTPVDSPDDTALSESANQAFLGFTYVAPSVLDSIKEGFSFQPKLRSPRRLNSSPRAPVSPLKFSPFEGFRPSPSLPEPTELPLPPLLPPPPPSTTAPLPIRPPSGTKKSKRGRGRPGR

[6] = tested on: Mast/stem cell growth factor receptor Kit (Homo sapiens), P10721 [D816V]; assay: (§1) Selectivity interaction (KinomeScan (DiscoverX)) EUB0000655a KIT; conditions: at 10 µM
Sequence of Mast/stem cell growth factor receptor Kit (Homo sapiens), P10721 [D816V] (P10721 whole entry D816V): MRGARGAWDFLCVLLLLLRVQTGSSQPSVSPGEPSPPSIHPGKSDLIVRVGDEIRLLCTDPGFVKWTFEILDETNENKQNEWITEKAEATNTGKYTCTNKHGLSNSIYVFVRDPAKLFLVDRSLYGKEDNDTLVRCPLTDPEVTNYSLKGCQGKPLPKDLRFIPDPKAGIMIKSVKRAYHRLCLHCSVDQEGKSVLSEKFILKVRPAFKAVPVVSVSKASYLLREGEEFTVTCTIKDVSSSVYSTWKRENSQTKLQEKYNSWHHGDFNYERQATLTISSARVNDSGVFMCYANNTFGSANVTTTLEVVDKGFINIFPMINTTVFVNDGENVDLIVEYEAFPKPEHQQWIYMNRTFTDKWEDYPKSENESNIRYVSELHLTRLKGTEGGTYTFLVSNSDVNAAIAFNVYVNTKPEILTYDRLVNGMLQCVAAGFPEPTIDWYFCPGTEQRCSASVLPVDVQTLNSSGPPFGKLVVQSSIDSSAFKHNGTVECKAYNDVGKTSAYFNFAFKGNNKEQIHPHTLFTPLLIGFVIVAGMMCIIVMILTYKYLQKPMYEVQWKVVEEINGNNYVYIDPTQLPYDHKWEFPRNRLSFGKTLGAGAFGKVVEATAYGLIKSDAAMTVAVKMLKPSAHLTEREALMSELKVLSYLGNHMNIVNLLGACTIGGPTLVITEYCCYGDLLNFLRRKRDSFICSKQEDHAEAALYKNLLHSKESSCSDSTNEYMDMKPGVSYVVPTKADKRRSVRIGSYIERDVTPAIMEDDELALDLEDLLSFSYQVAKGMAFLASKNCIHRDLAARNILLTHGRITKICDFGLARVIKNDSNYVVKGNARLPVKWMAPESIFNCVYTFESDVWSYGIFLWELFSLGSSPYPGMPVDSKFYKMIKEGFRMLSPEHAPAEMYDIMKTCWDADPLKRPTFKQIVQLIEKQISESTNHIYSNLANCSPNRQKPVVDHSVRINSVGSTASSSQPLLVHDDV

[7] = tested on: Mast/stem cell growth factor receptor Kit (Homo sapiens), P10721 [V559D]; assay: as §1; conditions: at 10 µM
Sequence of Mast/stem cell growth factor receptor Kit (Homo sapiens), P10721 [V559D] (P10721 whole entry V559D): as the sequence (P10721 whole entry D816V) above, with V559D, V816D counted along it

[8] = molecular target: T3, Serine/threonine-protein kinase tousled-like 1 (Homo sapiens) (UniProt Q9UKI8); assay: Selectivity interaction (KinomeScan (DiscoverX)) EUB0000695a TLK1; conditions: at 100 nM
T3 sequence (whole entry): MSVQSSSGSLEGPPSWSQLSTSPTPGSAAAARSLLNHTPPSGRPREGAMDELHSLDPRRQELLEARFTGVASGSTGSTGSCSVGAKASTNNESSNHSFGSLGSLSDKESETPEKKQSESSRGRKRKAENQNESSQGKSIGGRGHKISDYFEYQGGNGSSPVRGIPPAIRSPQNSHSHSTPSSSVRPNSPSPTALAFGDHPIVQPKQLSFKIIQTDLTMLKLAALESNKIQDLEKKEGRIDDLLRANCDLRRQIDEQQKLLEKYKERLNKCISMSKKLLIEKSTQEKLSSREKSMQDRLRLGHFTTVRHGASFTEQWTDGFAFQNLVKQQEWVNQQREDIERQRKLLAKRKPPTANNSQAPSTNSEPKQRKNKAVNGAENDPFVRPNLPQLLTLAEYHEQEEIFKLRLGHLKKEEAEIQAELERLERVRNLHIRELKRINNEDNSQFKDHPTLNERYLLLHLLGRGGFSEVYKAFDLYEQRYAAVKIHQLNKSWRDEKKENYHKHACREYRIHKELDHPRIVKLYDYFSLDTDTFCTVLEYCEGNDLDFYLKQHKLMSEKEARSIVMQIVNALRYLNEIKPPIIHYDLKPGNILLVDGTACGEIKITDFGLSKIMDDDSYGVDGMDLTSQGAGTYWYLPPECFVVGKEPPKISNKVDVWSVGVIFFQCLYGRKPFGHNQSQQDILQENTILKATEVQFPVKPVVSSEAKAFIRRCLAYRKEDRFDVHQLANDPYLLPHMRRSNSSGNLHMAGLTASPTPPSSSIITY

Q: With COc1cc(Nc2nc(C)cc(-c3cnn4nc(OC)ccc34)n2)cc(C(F)(F)F)c1 as the molecule, how does the % of control [1] read?
A: 99%

Q: How did the % of control [2] turn out when COCC(=O)NC/C=C/c1ccc2ncnc(Nc3ccc(Oc4ccc(C)nc4)c(C)c3)c2c1 [CP-724714] was run?
A: 96%

Q: Which % of control [3] does the source give for CCC(=O)N1CCN(c2ccc(-n3c(=O)ccc4cnc5ccc(-c6cnc7ccccc7c6)cc5c43)cc2C(F)(F)F)CC1 here?
A: 38%

Q: For Cc1cnc(Nc2ccc(F)cc2Cl)nc1-c1c[nH]c(C(=O)N[C@H](CO)c2cccc(Cl)c2)c1, which % of inhibition [4] is on record?
A: 0%

Q: For N#Cc1cccc(-c2c[nH]c3ncnc(N4CCOCC4)c23)c1, which % of inhibition [5] is on record?
A: 19%

Q: For CN(C)CCOc1ccc(-c2nc(-c3ccncc3)c(-c3ccc4c(c3)CC/C4=N\O)[nH]2)cc1, which % of control [6] is on record?
A: 79%

Q: What about the % of control [7] of the same molecule?
A: 65%

Q: Cc1cc(F)c(C(=O)Nc2cccc(-c3nncn3C(C)C)n2)cc1-n1cnc(C2CC2)c1 was tested. Which % of control [8] did it give?
A: 88%
